Tests used:
Adenosine A2 receptor [1] = molecular target: T1, Adenosine A2 receptor (Homo sapiens, UniProt P29275+P29274)
Description: Coronary arteries vasodilation at the Adenosine A2 receptor in langendorff guinea pig heart preparation

Adenosine receptor A1 [2] = molecular target: T2, Adenosine receptor A1 (Cavia porcellus, UniProt P47745); assay: Prolongation of the stimulus-QRS interval by 50% of the maximum response at the Adenosine A1 receptor in langendorff guinea pig heart preparation; type: functional
T2 sequence (P47745 whole entry): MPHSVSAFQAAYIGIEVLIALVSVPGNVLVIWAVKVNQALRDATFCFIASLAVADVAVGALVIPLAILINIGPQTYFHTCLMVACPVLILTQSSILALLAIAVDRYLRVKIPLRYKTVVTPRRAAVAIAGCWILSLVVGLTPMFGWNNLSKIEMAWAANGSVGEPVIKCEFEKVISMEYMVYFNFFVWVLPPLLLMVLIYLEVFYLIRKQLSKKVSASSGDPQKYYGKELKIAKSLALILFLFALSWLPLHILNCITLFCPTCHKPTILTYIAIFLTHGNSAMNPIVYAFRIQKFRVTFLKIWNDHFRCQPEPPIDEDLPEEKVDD

Adenosine receptor A1 [3] = molecular target: T2, Adenosine receptor A1
Description: Prolongation of the stimulus-QRS interval by 50% of the maximum response at the adenosine A1 receptor in langendorff guinea pig heart preparation

Adenosine A2 receptor [4] = molecular target: T1, Adenosine A2 receptor; remark: listed apart in the source
Description: Coronary arteries vasodilation at the adenosine A2 receptor in langendorff guinea pig heart preparation

-Log EC50 (Adenosine A2 receptor [1]) | EC50 (Adenosine receptor A1 [2]) | EC50 (Adenosine receptor A1 [3]) | -Log EC50 (Adenosine A2 receptor [4]) | Structure (SMILES)
7.56 | 63.1 µM |  |  | CC#CCCOc1nc(N)c2ncn(C3O[C@@H](CO)[C@H](O)[C@@H]3O)c2n1 (stereo partly specified)
 |  | 50.1 µM | 6.75 | Nc1nc(OCC2CCCCC2)nc2c1ncn2C1O[C@@H](CO)[C@H](O)[C@@H]1O (stereo partly specified)
7.8 | 15.8 µM |  |  | CCC(CC)CCOc1nc(N)c2ncn(C3O[C@@H](CO)[C@H](O)[C@@H]3O)c2n1 (stereo partly specified)
8.24 | 4.47 µM |  |  | CC1(C)C2CCC(C(=O)CCOc3nc(N)c4ncn(C5O[C@@H](CO)[C@H](O)[C@@H]5O)c4n3)C1C2 (stereo partly specified)
5.45 | 891 µM |  |  | CCC(C)Oc1nc(N)c2ncn(C3O[C@@H](CO)[C@H](O)[C@@H]3O)c2n1 (stereo partly specified)
7.28 | 37.2 µM |  |  | CCCCOc1nc(N)c2ncn(C3O[C@@H](CO)[C@H](O)[C@@H]3O)c2n1 (stereo partly specified)
7.94 | 45.7 µM |  |  | CCCCCOc1nc(N)c2ncn(C3O[C@@H](CO)[C@H](O)[C@@H]3O)c2n1 (stereo partly specified)
7.88 | 0.0339 µM |  |  | CC(C)N(c1ccccc1)c1ncnc2c1ncn2C1O[C@H](CO)[C@@H](O)[C@H]1O (stereo partly specified)
 | 24.5 µM |  |  | CCNC(=O)[C@H]1O[C@@H](n2cnc3c(N)nc(NCCc4ccc(CCC(=O)O)cc4)nc32)[C@H](O)[C@@H]1O [CGS-21680]
7.61 | 66.1 µM |  |  | CC(C)CCOc1nc(N)c2ncn(C3O[C@@H](CO)[C@H](O)[C@@H]3O)c2n1 (stereo partly specified)
 |  | 14.1 µM | 8.41 | Nc1nc(OCCC2CCCC2)nc2c1ncn2C1O[C@@H](CO)[C@H](O)[C@@H]1O (stereo partly specified)
8.42 | 13.8 µM |  |  | CCCCCCOc1nc(N)c2ncn(C3O[C@@H](CO)[C@H](O)[C@@H]3O)c2n1 (stereo partly specified)
7.15 | 107 µM |  |  | CC(C)COc1nc(N)c2ncn(C3O[C@@H](CO)[C@H](O)[C@@H]3O)c2n1 (stereo partly specified)
7.28 | 148 µM |  |  | CCCOc1nc(N)c2ncn(C3O[C@@H](CO)[C@H](O)[C@@H]3O)c2n1 (stereo partly specified)
6.44 | 79.4 µM |  |  | CCOc1nc(N)c2ncn(C3O[C@@H](CO)[C@H](O)[C@@H]3O)c2n1 (stereo partly specified)
7.1 | 1.15 µM |  |  | Nc1nc(=O)[nH]c2c1ncn2[C@@H]1O[C@H](CO)[C@@H](O)[C@H]1O [ISOGUANOSINE]
 |  | 12.6 µM | 7.74 | Nc1nc(Nc2ccccc2)nc2c1ncn2[C@@H]1O[C@H](CO)[C@@H](O)[C@H]1O
7.18 | 2.19 µM |  |  | Nc1nc(OCCO)nc2c1ncn2C1O[C@@H](CO)[C@H](O)[C@@H]1O (stereo partly specified)
5.86 | 224 µM |  |  | CC(C)Oc1nc(N)c2ncn(C3O[C@@H](CO)[C@H](O)[C@@H]3O)c2n1 (stereo partly specified)
 |  | 0.191 µM | 7.6 | Nc1nc(Cl)nc2c1ncn2[C@@H]1O[C@H](CO)[C@@H](O)[C@H]1O
6.54 | 35.5 µM |  |  | CCC(CC)COc1nc(N)c2ncn(C3O[C@@H](CO)[C@H](O)[C@@H]3O)c2n1 (stereo partly specified)
 |  | 8.71 µM | 8.35 | Nc1nc(OCCC(=O)[C@H]2CC3CCC2C3)nc2c1ncn2C1O[C@@H](CO)[C@H](O)[C@@H]1O (stereo partly specified)
 |  | 5.62 µM | 9.35 | COc1cc(OC)cc(C(CNc2ncnc3c2ncn3[C@@H]2O[C@H](CO)[C@@H](O)[C@H]2O)c2ccccc2C)c1 (stereo partly specified)
7.08 | 0.00537 µM |  |  | O=C(Nc1ncnc2c1ncn2[C@@H]1O[C@H](CO)[C@@H](O)[C@H]1O)[C@H]1C[C@H]2CC[C@@H]1C2
 |  | 9.33 µM | 6.16 | COc1nc(N)c2ncn([C@H]3O[C@@H](CO)[C@H](O)[C@@H]3O)c2n1
8.45 | 22.9 µM |  |  | CC(C)CCCOc1nc(N)c2ncn(C3O[C@@H](CO)[C@H](O)[C@@H]3O)c2n1 (stereo partly specified)
7.04 | 79.4 µM |  |  | Nc1nc(OC2CCCC2)nc2c1ncn2[C@H]1O[C@@H](CO)[C@H](O)[C@@H]1O
6.18 | 100 µM |  |  | Nc1nc(OC2CCCCC2)nc2c1ncn2C1O[C@@H](CO)[C@H](O)[C@@H]1O (stereo partly specified)

Structure (SMILES) | -Log EC50 (Adenosine A2 receptor [1]) | EC50 (Adenosine receptor A1 [2]) | EC50 (Adenosine receptor A1 [3]) | -Log EC50 (Adenosine A2 receptor [4])
Nc1nc(OCCC2CCCCC2)nc2c1ncn2C1O[C@@H](CO)[C@H](O)[C@@H]1O (stereo partly specified) |  |  | 8.71 µM | 8.99
Nc1nc(OCCCC2CCCCC2)nc2c1ncn2C1O[C@@H](CO)[C@H](O)[C@@H]1O (stereo partly specified) |  |  | 3.72 µM | 8.67
Nc1nc(OCCCCC2CCCCC2)nc2c1ncn2C1O[C@@H](CO)[C@H](O)[C@@H]1O (stereo partly specified) | 8.71 | 2.63 µM |  | 
